Results from patent US5830868A, “Substituted DI- and tripeptide inhibitors of protein: farnesyl transferase” (Warner-Lambert Company, priority 1996, dated 1998).
Square brackets hold non-standard residues; d marks the D form. Peptide text beside a SMILES is read from it. * marks the point of attachment. Bip = N[C@@H](Cc1ccc(-c2ccccc2)cc1)C(=O)O; NHPhenethyl = c1ccc(CCN*)cc1; Cbz = O=C(OCc1ccccc1)*; Bn = c1ccc(C*)cc1

These molecules were tested against T1, rat brain farnesyl protein transferase (PFT) (Rattus norvegicus, UniProt Q02293+Q04631) (assay: PFT inhibitory activity assay (radiolabeled farnesyl pyrophosphate, biotinyl peptide, streptavidin beads)). Conditions: 40-fold purified rat brain enzyme; 0.12 μM [3H]FPP, 0.1 μM biotinyl-Ahe-Tyr-Lys-Cys-Val-Ile-Met; 37° C., 30 minutes; read-out: IC50 (μM) against PFT.
T1 construct: 40-fold purified rat brain farnesyl protein transferase; from tissue; host or cells: rat brain
T1 sequence (Q02293 whole entry, one chain of several): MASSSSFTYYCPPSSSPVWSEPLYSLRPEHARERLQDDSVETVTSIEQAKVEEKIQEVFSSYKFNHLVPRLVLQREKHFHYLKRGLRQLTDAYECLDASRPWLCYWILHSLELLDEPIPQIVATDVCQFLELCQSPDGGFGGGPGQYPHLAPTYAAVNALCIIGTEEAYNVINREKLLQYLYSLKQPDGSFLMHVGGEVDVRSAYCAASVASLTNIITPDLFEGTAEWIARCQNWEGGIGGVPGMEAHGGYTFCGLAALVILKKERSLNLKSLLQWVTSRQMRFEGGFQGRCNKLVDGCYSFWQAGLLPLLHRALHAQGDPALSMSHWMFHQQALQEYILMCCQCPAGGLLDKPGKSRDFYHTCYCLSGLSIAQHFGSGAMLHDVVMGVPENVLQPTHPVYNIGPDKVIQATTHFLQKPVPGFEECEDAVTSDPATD
Format: biochemical
Experimental: The PFT inhibitory activity of compounds of Formula I was assayed in 30 mM potassium phosphate buffer, pH 7.4, containing 7 mM DTT, 1.2 mM MgCl2, 0.1 mM leupeptin, 0.1 mM pepstatin and 0.2 mM phenylmethylsulfonyl fluoride. Assays were performed in 96 well plates (Wallec) and employed solutions composed of varying concentrations of a compound of Formula I in 100% DMSO. Upon addition of both substrates, radiolabeled farnesyl pyrophosphate ([1-^3 H], specific activity 15--30 Ci/mmol, final concentration 0.12 μM) and (biotinyl)-Ahe-Tyr-Lys-Cys-Val-Ile-Met peptide (final concentration 0.1 μM), the enzyme reaction was started by addition of 40-fold purified rat brain farnesyl protein transferase. After incubation at 37° C. for 30 minutes, the reaction was terminated by diluting the reaction 2.5-fold with a stop buffer containing 1.5M magnesium acetate, 0.2M H3 PO4, 0.5% BSA, and strepavidin beads (Amersham) at a concentration of 1.3 mg/mL. After allowing the plate to settle for 30 minutes at room temperature, radioactivity was quantitated on a microBeta counter (model 1450, Wallec). Compounds of Formula I show IC50 values of 0.5 nM to 80 μM (see data table) in this assay and are thus valuable inhibitors of protein: farnesyl transferase enzyme which may be used in the medical treatment of tissue proliferative diseases, including cancer and restenosis.

SMILES | IC50 [µM]
O=C(N[C@H](Cc1cnc[nH]1)C(=O)N[C@@H](Cc1ccc(OCc2ccccc2)cc1)C(=O)NCCc1ccccc1)N[C@@H]1C[C@H]1c1ccccc1 [5 (31), (t-2-Ph-c-propyl)-NHCO--D--His--Tyr(OBn)CONHCH2 CH2 Ph] | 0.76
CCOc1ccc(NC(=O)N[C@H](Cc2c[nH]cn2)C(=O)N[C@@H](Cc2ccc(OCc3ccccc3)cc2)C(=O)NCCOCc2ccccc2)cc1 [5 (61), (4-EtOPh)NHCO--D--His--Tyr(OBn)CONHCH2 CH2 OBn] | 7.2
COC(=O)[C@H](COCc1ccccc1)NC(=O)[C@H](Cc1ccc(OCc2ccccc2)cc1)NC(=O)[C@@H](Cc1c[nH]cn1)NC(=O)OCc1ccccc1 [Example 8, N-[N-[N-[(Phenylmethoxy)carbonyl]-D-histidyl]-O-(phenylmethyl)-L-tyrosyl]-O-(phenylmethyl)-L-serine, methyl ester] (Cbz-[dH]-Tyr(Bn)-Ser(Bn)-OMe) | 0.074
O=C(NCc1ccccc1)N[C@H](Cc1c[nH]cn1)C(=O)N[C@@H](Cc1ccc(OCc2ccccc2)cc1)C(=O)NOCc1ccccc1 [5 (52), BnNHCO--D--His--Tyr(OBn)CONHOBn] | 1.6
O=C(NC(Cc1cnc[nH]1)C(=O)NC(Cc1ccc(OCc2ccccc2)cc1)C(=O)NCCSCc1ccccc1)OCc1ccccc1 [5 (62), BnOCO--D--His--Tyr(OBn)CONHCH2 CH2 SBn] | 1.5
O=C(NCc1ccccc1)N[C@@H](Cc1c[nH]cn1)C(=O)N[C@@H](Cc1ccc(OCc2ccccc2)cc1)C(=O)NCCCOc1ccccc1 [Example 4] | 1

Further lines, results first:

IC50 [µM] | SMILES
0.31 | CN(C(=O)OCc1ccccc1)[C@H](Cc1c[nH]cn1)C(=O)N[C@@H](Cc1ccc(OCc2ccccc2)cc1)C(=O)NCCOCc1ccccc1 [Example 21, Nα -[N-Methyl-N[(phenylmethoxy)carbonyl]-D-histidyl]-N-[2-(phenylmethoxy)ethyl]-O-(phenylmethyl)-L-tyrosinamide]
30 | COC(=O)[C@H](COCc1ccccc1)NC(=O)[C@H](CCc1ccc(OCc2ccccc2)cc1)NC(=O)[C@@H](Cc1c[nH]cn1)NC(=O)OCc1ccccc1 [Example 15]
0.31 | O=C(N[C@@H](Cc1c[nH]cn1)C(=O)N[C@@H](Cc1ccc(OCc2ccccc2)cc1)C(=O)NCCOCc1ccccc1)OCc1ccccc1 [Example 19, Nα -[-N-[(Phenylmethoxy)carbonyl]-L-histidyl]-O-(phenylmethyl)-N-[2-(phenylmethoxy)ethyl]-L-tyrosinamide]
0.6 | COC(=O)[C@H](COCc1ccccc1)NC(=O)[C@H](Cc1ccc(-c2ccccc2)cc1)NC(=O)[C@H](Cc1c[nH]cn1)NC(=O)OCc1ccccc1 [Example 16, N-[4-Phenyl-N-[N-[(phenylmethoxy)carbonyl]-L-histidyl]-L-phenylalanyl]-O-(phenylmethyl)-L-serine, methyl ester] (Cbz-His-[Bip]-Ser(Bn)-OMe)
3 | CN(CCOCc1ccccc1)C(=O)[C@H](Cc1ccc(OCc2ccccc2)cc1)NC(=O)[C@H](Cc1c[nH]cn1)NC(=O)OCc1ccccc1 [Example 29, Nα -[N-[(Phenylmethoxy)carbonyl]-L-histidyl]-O-(phenylmethyl)-N-methyl-N-[2-(phenylmethoxy)ethyl]-L-tyrosinamide]
1.9 | O=C(N[C@@H](Cc1c[nH]cn1)C(=O)N[C@@H](Cc1ccc(OCc2ccccc2)cc1)C(=O)NCCc1ccccc1)OCc1ccccc1 [Example 23, N-(2-Phenylethyl)-N60-[-N-[(phenylmethoxy)carbonyl]-L-histidyl]-O-(phenylmethyl)-L-tyrosinamide] (Cbz-His-Tyr(Bn)-NHPhenethyl)
0.1 | COC(=O)[C@H](COCc1ccccc1)NC(=O)C(C)(Cc1ccc(OCc2ccccc2)cc1)NC(=O)[C@H](Cc1c[nH]cn1)NC(=O)OCc1ccccc1 (mixture of isomers) [Example 10, N-[α-Methyl-N-[N-[(phenylmethoxy)carbonyl]-L-histidyl]-O-(phenylmethyl)-DL-tyrosyl]-O-(phenylmethyl)-L-serine. methyl ester]
